From ChEMBL document CHEMBL2176875, “Ago-allosteric modulators of human glucagon-like peptide 2 receptor” (Bioorg Med Chem Lett, 2012)
Calls of active or inactive are those of the source. No cut-off for these calls is given here.

Tests used:
[1] = biological target: T1, Glucagon-like peptide 2 receptor (Homo sapiens) (UniProt O95838); experiment: Positive ago-allosteric modulation of GLP2R overexpressed in human SE302 cells assessed as increase in intracellular cAMP level at 1 to 10 uM after 30 mins in presence of GLP2 (11 to 33); assay type: functional, cell-based
T1 sequence (whole entry): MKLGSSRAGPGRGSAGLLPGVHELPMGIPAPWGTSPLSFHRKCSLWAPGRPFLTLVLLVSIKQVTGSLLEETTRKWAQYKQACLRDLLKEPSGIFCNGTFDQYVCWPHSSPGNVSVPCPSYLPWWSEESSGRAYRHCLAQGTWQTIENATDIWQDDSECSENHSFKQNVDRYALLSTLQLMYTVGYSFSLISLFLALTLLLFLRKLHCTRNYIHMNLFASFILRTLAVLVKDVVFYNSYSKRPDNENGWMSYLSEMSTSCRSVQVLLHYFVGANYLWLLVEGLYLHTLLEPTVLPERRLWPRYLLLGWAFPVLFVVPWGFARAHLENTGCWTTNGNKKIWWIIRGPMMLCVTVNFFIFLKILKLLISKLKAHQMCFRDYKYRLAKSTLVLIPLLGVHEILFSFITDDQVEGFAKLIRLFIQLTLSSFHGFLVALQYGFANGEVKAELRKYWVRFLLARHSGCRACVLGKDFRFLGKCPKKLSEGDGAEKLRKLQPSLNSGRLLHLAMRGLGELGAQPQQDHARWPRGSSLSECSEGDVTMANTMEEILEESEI

[2] = biological target: T1, Glucagon-like peptide 2 receptor (Homo sapiens); experiment: Positive ago-allosteric modulation of GLP2R overexpressed in human SE302 cells assessed as increase in intracellular cAMP level at 1 to 10 uM after 30 mins in presence of GLP2 (3 to 33); assay type: functional, cell-based
[3] = biological target: T1, Glucagon-like peptide 2 receptor (Homo sapiens); experiment: Positive ago-allosteric modulation of GLP2R overexpressed in human SE302 cells assessed as upward shift in GLP2-induced placental alkaline phosphatase activation measured on day 3 by Alamar Blue assay; assay type: cell-based
[4] = biological target: T1, Glucagon-like peptide 2 receptor (Homo sapiens); experiment: Positive ago-allosteric modulation of GLP2R overexpressed in human SE302 cells assessed as increase in intracellular cAMP level at 10 uM after 30 mins in presence of GLP2; assay type: functional, cell-based
[5] = biological target: T1, Glucagon-like peptide 2 receptor (Homo sapiens); experiment: Positive ago-allosteric modulation of GLP2R overexpressed in human SE302 cells assessed as leftward shift in GLP2-induced placental alkaline phosphatase activation measured on day 3 by Alamar Blue assay; assay type: cell-based
[6] = biological target: T1, Glucagon-like peptide 2 receptor (Homo sapiens); experiment: Positive ago-allosteric modulation of GLP2R overexpressed in human SE302 cells assessed as decrease in GLP2 (11 to 33) EC50 at 10 uM measured on day 3 by Alamar Blue assay relative to control; assay type: cell-based
[7] = biological target: T1, Glucagon-like peptide 2 receptor (Homo sapiens); experiment: Positive ago-allosteric modulation of GLP2R overexpressed in human SE302 cells assessed as decrease in GLP2 (3 to 33) EC50 at 10 uM measured on day 3 by Alamar Blue assay relative to control; assay type: cell-based
[8] = biological target: T1, Glucagon-like peptide 2 receptor (Homo sapiens); experiment: Positive ago-allosteric modulation of GLP2R overexpressed in human SE302 cells assessed as decrease in GLP2 (11 to 33) EC50 at 1 uM measured on day 3 by Alamar Blue assay relative to control; assay type: cell-based
[9] = biological target: T1, Glucagon-like peptide 2 receptor (Homo sapiens); experiment: Positive ago-allosteric modulation of GLP2R overexpressed in human SE302 cells assessed as decrease in GLP2 (3 to 33) EC50 at 1 uM measured on day 3 by Alamar Blue assay relative to control; assay type: cell-based
[10] = biological target: T1, Glucagon-like peptide 2 receptor (Homo sapiens); experiment: Positive ago-allosteric modulation of GLP2R overexpressed in human SE302 cells assessed as change in GLP2 EC50 measured on day 3 by Alamar Blue assay relative to control; assay type: cell-based
[11] = biological target: T1, Glucagon-like peptide 2 receptor (Homo sapiens); experiment: Positive ago-allosteric modulation of GLP2R overexpressed in human SE302 cells assessed as increase in GLP2 (11 to 33)-induced placental alkaline phosphatase activation at 10 uM measured on day 3 by Alamar Blue assay relative to control; assay type: cell-based
[12] = biological target: T1, Glucagon-like peptide 2 receptor (Homo sapiens); experiment: Positive ago-allosteric modulation of GLP2R overexpressed in human SE302 cells assessed as increase in GLP2 (11 to 33)-induced placental alkaline phosphatase activation at 1 uM measured on day 3 by Alamar Blue assay relative to control; assay type: cell-based
[13] = biological target: T1, Glucagon-like peptide 2 receptor (Homo sapiens); experiment: Positive ago-allosteric modulation of GLP2R overexpressed in human SE302 cells assessed as increase in GLP2 (3 to 33)-induced placental alkaline phosphatase activation at 10 uM measured on day 3 by Alamar Blue assay relative to control; assay type: cell-based
[14] = biological target: T1, Glucagon-like peptide 2 receptor (Homo sapiens); experiment: Positive ago-allosteric modulation of GLP2R overexpressed in human SE302 cells assessed as increase in GLP2 (3 to 33)-induced placental alkaline phosphatase activation at 1 uM measured on day 3 by Alamar Blue assay relative to control; assay type: cell-based
[15] = biological target: T1, Glucagon-like peptide 2 receptor (Homo sapiens); experiment: Positive ago-allosteric modulation of GLP2R overexpressed in human SE302 cells assessed as increase in GLP2 (11 to 33)-induced placental alkaline phosphatase activation at 10 uM measured on day 3 by Alamar Blue assay relative to GLP2; assay type: cell-based
[16] = biological target: T1, Glucagon-like peptide 2 receptor (Homo sapiens); experiment: Positive ago-allosteric modulation of GLP2R overexpressed in human SE302 cells assessed as GLP2 (3 to 33)-induced placental alkaline phosphatase activation at 10 uM measured on day 3 by Alamar Blue assay relative to GLP2; assay type: cell-based
[17] = biological target: T1, Glucagon-like peptide 2 receptor (Homo sapiens); experiment: Positive ago-allosteric modulation of GLP2R overexpressed in human SE302 cells assessed as increase in GLP2-induced placental alkaline phosphatase activation at 10 uM measured on day 3 by Alamar Blue assay relative to control; assay type: cell-based
[18] = biological target: T1, Glucagon-like peptide 2 receptor (Homo sapiens); experiment: Positive ago-allosteric modulation of GLP2R overexpressed in human SE302 cells assessed as increase in intracellular cAMP level at 10 to 100 uM after 30 mins; assay type: functional, cell-based
[19] = biological target: Glucagon-like peptide 1 receptor (Homo sapiens) (UniProt P43220); experiment: Positive ago-allosteric modulation of GLP1R overexpressed in human SE302 cells assessed as increase in intracellular cAMP level at 10 to 100 uM after 30 mins; assay type: functional, cell-based
Sequence of Glucagon-like peptide 1 receptor (Homo sapiens) (P43220 whole entry): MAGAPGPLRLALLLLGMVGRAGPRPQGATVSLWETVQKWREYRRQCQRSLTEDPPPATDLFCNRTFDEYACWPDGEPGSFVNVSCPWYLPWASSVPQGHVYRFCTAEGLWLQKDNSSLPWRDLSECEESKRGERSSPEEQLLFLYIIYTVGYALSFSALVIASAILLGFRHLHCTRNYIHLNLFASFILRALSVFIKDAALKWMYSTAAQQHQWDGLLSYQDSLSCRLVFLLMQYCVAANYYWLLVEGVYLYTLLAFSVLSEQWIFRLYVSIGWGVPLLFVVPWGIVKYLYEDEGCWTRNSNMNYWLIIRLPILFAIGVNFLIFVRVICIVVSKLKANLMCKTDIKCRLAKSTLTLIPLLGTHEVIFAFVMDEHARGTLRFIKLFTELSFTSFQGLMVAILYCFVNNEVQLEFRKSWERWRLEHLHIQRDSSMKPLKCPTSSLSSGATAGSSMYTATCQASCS

[20] = biological target: T1, Glucagon-like peptide 2 receptor (Homo sapiens); experiment: Positive ago-allosteric modulation of GLP2R overexpressed in human SE302 cells assessed as placental alkaline phosphatase activation measured on day 3 by Alamar Blue assay; assay type: cell-based
[21] = biological target: T1, Glucagon-like peptide 2 receptor (Homo sapiens); experiment: Positive ago-allosteric modulation of GLP2R overexpressed in human SE302 cells assessed as placental alkaline phosphatase activation at 25 uM measured on day 3 by Alamar Blue assay relative to 100 pM GLP2; assay type: cell-based
[22] = biological target: T1, Glucagon-like peptide 2 receptor (Homo sapiens); experiment: Positive ago-allosteric modulation of GLP2R overexpressed in human SE302 cells assessed as placental alkaline phosphatase activation at 25 uM measured on day 3 by Alamar Blue assay relative to 10 pM GLP2; assay type: cell-based

Activity [1]: Active | Activity [2]: Active | Activity [3]: Dose-dependent effect | Activity [4]: Active | Activity [5]: Dose-dependent effect | fold change (FC) [6]: 17 | fold change (FC) [7]: 3.3 | fold change (FC) [8]: 3.4 | fold change (FC) [9]: 1.2 | Activity [10]: inactive | %max [11]: 930% | %max [12]: 490% | %max [13]: 150% | %max [14]: 110% | Activity [15]: Active | Activity [16]: Active | Activity [17]: 10% | Activity [18]: Active | Activity [19]: inactive | Activity [20]: inactive | %max [21]: 55% | %max [22]: 701%
Compound: O/N=C(\CSc1ccccc1)c1cc(Cl)sc1Cl
